Assays:
Experiment in all cases: KINOMEscan competition binding
Conditions in all cases: compound 10.0 µM
STK16 (human) = STK16 (human) (UniProt O75716)
STK39 (human) = STK39 (human) (UniProt Q9UEW8)
SRPK1 (human) = SRPK1 (human) (UniProt Q96SB4)
FRK (human) = FRK (human) (UniProt P42685)
TNK2 (human) = TNK2 (human) (UniProt Q07912)
STK4 (human) = STK4 (human) (UniProt Q13043)
PRKD3 (human) = PRKD3 (human) (UniProt O94806)
CDK14 (human) = CDK14 (human) (UniProt O94921)
[1] = test system: FGFR3 (human), P22607 [G697C]
PAK7 (human) = PAK7 (human) (UniProt Q9P286)
[2] = test system: RET (human), P07949 [V804L]
Sequence of RET (human), P07949 [V804L] (P07949 whole entry V804L, looked up): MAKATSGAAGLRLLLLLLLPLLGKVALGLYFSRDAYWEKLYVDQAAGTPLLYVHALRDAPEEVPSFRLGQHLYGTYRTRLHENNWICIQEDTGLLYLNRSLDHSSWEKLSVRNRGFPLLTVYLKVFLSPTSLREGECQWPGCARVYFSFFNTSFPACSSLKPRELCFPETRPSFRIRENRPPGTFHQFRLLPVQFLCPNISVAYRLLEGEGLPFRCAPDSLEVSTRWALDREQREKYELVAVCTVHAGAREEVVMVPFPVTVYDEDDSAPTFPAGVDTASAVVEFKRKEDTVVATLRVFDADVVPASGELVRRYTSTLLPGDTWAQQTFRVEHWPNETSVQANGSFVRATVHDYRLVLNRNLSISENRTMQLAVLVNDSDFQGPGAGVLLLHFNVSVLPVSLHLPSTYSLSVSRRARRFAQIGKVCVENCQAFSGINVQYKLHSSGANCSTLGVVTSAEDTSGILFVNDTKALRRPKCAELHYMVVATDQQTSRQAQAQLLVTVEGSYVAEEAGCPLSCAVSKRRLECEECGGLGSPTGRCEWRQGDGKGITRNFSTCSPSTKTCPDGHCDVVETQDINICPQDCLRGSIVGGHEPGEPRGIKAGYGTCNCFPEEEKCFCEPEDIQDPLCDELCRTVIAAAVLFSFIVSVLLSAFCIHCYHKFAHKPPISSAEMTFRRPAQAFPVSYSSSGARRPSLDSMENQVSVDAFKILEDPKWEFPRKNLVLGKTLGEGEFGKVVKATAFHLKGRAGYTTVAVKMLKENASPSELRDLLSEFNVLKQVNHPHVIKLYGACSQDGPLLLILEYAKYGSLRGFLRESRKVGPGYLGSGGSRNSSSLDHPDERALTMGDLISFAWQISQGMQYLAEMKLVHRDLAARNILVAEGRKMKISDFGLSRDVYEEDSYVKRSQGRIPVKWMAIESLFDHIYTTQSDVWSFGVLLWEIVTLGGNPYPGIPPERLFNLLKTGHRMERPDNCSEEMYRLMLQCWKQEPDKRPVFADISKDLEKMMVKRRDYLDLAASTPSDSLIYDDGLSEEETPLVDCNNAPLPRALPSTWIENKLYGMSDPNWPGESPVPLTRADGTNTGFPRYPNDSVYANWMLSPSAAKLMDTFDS

INSR (human) = INSR (human) (UniProt P06213)
PKN3 (M.tuberculosis) = PKN3 (M.tuberculosis) (UniProt Q6P5Z2)
PKN2 (human) = PKN2 (human) (UniProt Q16513)
SLK (human) = SLK (human) (UniProt Q9H2G2)
EPHA2 (human) = EPHA2 (human) (UniProt P29317)
KDR (human) = KDR (human) (UniProt P35968)
TGFBR2 (human) = TGFBR2 (human) (UniProt P37173)
RPS6KA2 KD1 (human) = RPS6KA2 KD1 (human) (UniProt Q15349)
MAP3K15 (human) = MAP3K15 (human) (UniProt Q6ZN16)
AURKA (human) = AURKA (human) (UniProt O14965)
Sequence of AURKA (human) (O14965 whole entry, looked up): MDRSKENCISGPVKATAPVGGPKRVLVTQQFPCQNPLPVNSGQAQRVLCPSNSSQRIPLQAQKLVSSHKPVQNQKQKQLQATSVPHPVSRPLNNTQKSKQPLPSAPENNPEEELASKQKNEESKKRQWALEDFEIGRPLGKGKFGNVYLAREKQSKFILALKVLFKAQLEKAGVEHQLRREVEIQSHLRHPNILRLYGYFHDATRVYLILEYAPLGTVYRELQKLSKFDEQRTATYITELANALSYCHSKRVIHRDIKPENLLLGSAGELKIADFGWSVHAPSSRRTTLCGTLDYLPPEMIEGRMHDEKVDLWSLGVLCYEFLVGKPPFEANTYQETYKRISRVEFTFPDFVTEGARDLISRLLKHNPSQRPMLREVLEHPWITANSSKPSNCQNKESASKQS

NEK1 (human) = NEK1 (human) (UniProt Q96PY6)
MARK4 (human) = MARK4 (human) (UniProt Q96L34)
DCLK3 (human) = DCLK3 (human) (UniProt Q9C098)
EPHB3 (human) = EPHB3 (human) (UniProt P54753)
DAPK1 (human) = DAPK1 (human) (UniProt P53355)
NEK11 (human) = NEK11 (human) (UniProt Q8NG66)
CSNK2A2 (human) = CSNK2A2 (human) (UniProt P19784)
Sequence of CSNK2A2 (human) (P19784 whole entry, looked up): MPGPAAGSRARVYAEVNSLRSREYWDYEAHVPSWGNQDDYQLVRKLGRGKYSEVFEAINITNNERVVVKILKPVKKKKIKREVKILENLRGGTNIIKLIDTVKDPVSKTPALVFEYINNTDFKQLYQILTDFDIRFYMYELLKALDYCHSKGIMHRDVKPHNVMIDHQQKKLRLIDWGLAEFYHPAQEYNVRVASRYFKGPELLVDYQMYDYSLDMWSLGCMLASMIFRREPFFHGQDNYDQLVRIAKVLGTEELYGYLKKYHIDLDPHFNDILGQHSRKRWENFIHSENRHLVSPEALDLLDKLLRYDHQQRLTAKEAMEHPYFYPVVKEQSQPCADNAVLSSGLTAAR

PHKG2 (human) = PHKG2 (human) (UniProt P15735)
CDK19 (human) = CDK19 (human) (UniProt Q9BWU1)
MAPKAPK2 (human) = MAPKAPK2 (human) (UniProt P49137)
Sequence of MAPKAPK2 (human) (P49137 whole entry, looked up): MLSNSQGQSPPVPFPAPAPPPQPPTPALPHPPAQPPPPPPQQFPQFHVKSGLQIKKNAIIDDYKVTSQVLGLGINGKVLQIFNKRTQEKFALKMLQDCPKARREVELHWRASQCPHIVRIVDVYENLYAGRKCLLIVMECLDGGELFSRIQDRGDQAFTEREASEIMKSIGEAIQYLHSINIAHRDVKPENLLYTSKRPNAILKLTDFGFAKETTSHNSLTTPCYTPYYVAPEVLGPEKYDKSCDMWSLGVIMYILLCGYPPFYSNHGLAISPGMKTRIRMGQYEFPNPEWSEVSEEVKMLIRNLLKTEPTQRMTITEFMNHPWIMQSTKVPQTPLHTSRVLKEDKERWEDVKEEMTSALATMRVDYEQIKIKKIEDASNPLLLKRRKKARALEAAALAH

MARK3 (human) = MARK3 (human) (UniProt P27448)
MKNK1 (human) = MKNK1 (human) (UniProt Q9BUB5)
MAP2K5 (human) = MAP2K5 (human) (UniProt Q13163)
Sequence of MAP2K5 (human) (Q13163 whole entry, looked up): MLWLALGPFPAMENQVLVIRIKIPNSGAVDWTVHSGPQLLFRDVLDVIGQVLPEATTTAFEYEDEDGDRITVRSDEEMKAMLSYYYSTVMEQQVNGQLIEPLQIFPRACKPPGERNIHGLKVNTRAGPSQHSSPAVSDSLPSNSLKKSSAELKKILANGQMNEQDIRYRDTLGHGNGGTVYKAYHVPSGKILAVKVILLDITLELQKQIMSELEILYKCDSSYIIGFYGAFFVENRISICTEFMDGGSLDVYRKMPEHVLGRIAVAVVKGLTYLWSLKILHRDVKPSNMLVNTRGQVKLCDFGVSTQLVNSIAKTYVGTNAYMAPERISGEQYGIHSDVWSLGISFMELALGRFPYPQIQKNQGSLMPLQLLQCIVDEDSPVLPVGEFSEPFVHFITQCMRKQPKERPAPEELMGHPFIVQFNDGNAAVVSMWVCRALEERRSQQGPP

ADCK3 (human) = ADCK3 (human) (UniProt Q8NI60)
RIOK2 (human) = RIOK2 (human) (UniProt Q9BVS4)
PHKG1 (human) = PHKG1 (human) (UniProt Q16816)
Sequence of PHKG1 (human) (Q16816 whole entry, looked up): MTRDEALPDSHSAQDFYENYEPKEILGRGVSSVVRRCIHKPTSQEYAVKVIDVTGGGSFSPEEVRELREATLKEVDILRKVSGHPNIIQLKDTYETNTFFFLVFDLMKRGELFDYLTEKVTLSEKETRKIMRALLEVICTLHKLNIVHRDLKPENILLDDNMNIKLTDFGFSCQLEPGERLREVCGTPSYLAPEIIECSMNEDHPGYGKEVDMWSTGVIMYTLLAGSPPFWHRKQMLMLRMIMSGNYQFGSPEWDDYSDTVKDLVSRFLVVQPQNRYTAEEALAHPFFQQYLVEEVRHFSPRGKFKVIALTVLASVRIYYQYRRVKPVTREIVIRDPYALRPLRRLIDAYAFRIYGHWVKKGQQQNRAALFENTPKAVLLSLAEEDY

CHEK1 (human) = CHEK1 (human) (UniProt O14757)
ABL2 (human) = ABL2 (human) (UniProt P42684)
[3] = biological target: JAK1 JH2 pseudokinase (human) (UniProt P23458)

Sequence of STK4 (human) (Q13043 whole entry, looked up): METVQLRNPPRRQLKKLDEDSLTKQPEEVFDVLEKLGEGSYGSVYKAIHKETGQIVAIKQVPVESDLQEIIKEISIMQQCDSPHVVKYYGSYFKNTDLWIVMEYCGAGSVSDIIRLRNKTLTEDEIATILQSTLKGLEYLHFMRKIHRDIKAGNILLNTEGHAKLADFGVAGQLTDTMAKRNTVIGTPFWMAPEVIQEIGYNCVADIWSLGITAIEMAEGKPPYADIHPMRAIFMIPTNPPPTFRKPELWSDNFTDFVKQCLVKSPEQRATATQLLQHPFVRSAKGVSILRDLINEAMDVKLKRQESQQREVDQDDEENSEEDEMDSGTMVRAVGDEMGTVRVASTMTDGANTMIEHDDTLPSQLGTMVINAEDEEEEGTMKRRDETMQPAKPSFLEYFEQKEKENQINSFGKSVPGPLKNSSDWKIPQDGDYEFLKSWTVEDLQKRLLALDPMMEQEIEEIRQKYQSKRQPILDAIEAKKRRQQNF
Sequence of CDK14 (human) (O94921 whole entry, looked up): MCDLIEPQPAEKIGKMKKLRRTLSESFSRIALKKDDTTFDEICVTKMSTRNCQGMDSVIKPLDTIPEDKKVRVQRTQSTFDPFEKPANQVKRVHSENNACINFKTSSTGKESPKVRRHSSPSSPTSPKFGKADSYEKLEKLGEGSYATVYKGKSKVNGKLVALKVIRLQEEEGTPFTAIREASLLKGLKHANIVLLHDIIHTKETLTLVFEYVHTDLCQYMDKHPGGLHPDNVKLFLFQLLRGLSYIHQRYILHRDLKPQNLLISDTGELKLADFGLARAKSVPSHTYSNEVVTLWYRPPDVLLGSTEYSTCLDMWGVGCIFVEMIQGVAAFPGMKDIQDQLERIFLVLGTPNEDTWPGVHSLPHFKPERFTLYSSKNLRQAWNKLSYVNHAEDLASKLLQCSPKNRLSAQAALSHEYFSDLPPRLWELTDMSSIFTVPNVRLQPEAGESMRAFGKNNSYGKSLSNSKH
Sequence of PRKD3 (human) (O94806 whole entry, looked up): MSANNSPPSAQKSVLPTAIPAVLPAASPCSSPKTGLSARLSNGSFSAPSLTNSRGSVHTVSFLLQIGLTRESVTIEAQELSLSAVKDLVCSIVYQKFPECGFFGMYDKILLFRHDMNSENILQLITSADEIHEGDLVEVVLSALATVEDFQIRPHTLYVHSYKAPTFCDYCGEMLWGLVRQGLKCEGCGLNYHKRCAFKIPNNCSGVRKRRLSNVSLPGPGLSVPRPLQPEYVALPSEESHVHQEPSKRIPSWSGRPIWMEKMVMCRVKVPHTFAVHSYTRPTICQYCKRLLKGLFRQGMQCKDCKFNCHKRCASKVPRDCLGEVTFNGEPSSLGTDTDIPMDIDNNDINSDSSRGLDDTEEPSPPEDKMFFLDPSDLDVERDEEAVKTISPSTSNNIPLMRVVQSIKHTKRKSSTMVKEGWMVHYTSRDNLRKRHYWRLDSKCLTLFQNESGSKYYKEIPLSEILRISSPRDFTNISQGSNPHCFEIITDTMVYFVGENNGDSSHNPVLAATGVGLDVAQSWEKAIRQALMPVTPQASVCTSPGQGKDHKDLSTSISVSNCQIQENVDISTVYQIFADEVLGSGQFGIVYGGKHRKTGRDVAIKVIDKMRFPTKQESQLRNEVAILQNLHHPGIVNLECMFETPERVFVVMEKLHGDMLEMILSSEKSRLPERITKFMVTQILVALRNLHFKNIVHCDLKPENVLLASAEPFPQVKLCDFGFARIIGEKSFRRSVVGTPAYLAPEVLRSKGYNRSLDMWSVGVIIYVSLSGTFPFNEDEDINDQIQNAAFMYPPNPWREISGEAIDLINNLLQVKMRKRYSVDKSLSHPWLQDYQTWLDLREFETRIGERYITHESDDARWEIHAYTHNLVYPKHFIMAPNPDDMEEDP

`CCN1CCN(Cc2ccc(NC(=O)c3ccc(C)c(/C=C/c4cnc5[nH]ccc5c4OC)c3)cc2C(F)(F)F)CC1` gave a kinase still bound, per cent of control (STK16 (human)) of 54%, a kinase still bound, per cent of control (STK39 (human)) of 100% and a kinase still bound, per cent of control (SRPK1 (human)) of 1.8%. It also gave a kinase still bound, per cent of control (FRK (human)) of 0.6%, a kinase still bound, per cent of control (TNK2 (human)) of 0.8% and a kinase still bound, per cent of control (STK4 (human)) of 21%. It also gave a kinase still bound, per cent of control (PRKD3 (human)) of 52%, a kinase still bound, per cent of control (CDK14 (human)) of 72% and a kinase still bound, per cent of control [1] of 2.5%. It also gave a kinase still bound, per cent of control (PAK7 (human)) of 100%, a kinase still bound, per cent of control [2] of 0.1% and a kinase still bound, per cent of control (INSR (human)) of 79%. It also gave a kinase still bound, per cent of control (PKN3 (M.tuberculosis)) of 89%, a kinase still bound, per cent of control (PKN2 (human)) of 26% and a kinase still bound, per cent of control (SLK (human)) of 0.6%. It also gave a kinase still bound, per cent of control (EPHA2 (human)) of 1.7%, a kinase still bound, per cent of control (KDR (human)) of 2.6% and a kinase still bound, per cent of control (TGFBR2 (human)) of 5.7%. It also gave a kinase still bound, per cent of control (RPS6KA2 KD1 (human)) of 2.7%, a kinase still bound, per cent of control (MAP3K15 (human)) of 100% and a kinase still bound, per cent of control (AURKA (human)) of 97%. For the same compound, the kinase still bound, per cent of control (NEK1 (human)) was 89%, the kinase still bound, per cent of control (MARK4 (human)) was 100% and the kinase still bound, per cent of control (DCLK3 (human)) was 3.2%. It also gave a kinase still bound, per cent of control (EPHB3 (human)) of 4.7%, a kinase still bound, per cent of control (DAPK1 (human)) of 100% and a kinase still bound, per cent of control (NEK11 (human)) of 32%. For the same compound, the kinase still bound, per cent of control (CSNK2A2 (human)) was 95%, the kinase still bound, per cent of control (PHKG2 (human)) was 100% and the kinase still bound, per cent of control (CDK19 (human)) was 4.2%. For the same compound, the kinase still bound, per cent of control (MAPKAPK2 (human)) was 100%, the kinase still bound, per cent of control (MARK3 (human)) was 38% and the kinase still bound, per cent of control (MKNK1 (human)) was 68%. For the same compound, the kinase still bound, per cent of control (MAP2K5 (human)) was 0.2%, the kinase still bound, per cent of control (ADCK3 (human)) was 100% and the kinase still bound, per cent of control (RIOK2 (human)) was 19%. For the same compound, the kinase still bound, per cent of control (PHKG1 (human)) was 100%, the kinase still bound, per cent of control (CHEK1 (human)) was 28% and the kinase still bound, per cent of control (ABL2 (human)) was 0%. It also gave a kinase still bound, per cent of control [3] of 41%.
